Data: patent publication US10787456B2 (priority 2018, dated 2020)
Values after ≈ are worked out from the molar mass of the structure shown. Read-outs that look alike come from different tables or passages of the source.

How the values were obtained:
HUVEC cells = assay: Angiogenesis study, tube formation in HUVEC; assay type: cell-based; settings: 100 nM of drug treatment
Description: Angiogenesis studies were performed using HUVEC cells (see FIGS. 6A-6C). Tube formation in HUVEC in presence of 100 nM of drug treatment.

E. Coli = assay: E. coli minimum inhibitory concentration; assay type: cell-based
Text: (§1) Further cytotoxicity studies show potential for efficacy as […]. Table 2, below, provides IC50 data relating to both a cancer cell line and E. coli minimum inhibitory concentration (MIC).

κ (KOR) opioid receptor = κ (KOR) opioid receptor (Homo sapiens, UniProt P41145); assay: CNS receptor inhibition, Kappa opioid receptor; assay type: binding
Description: (§2) In an illustrative embodiment of the present invention, gliotoxin and Formula 1b, were evaluated for activity of various receptors. Turning to Table 1, inhibitory data is provided for various receptors found in the CNS, including H1 and opioid receptors μ (MOR), […], and κ (KOR). Inhibition data is provided as inhibitor constant, Ki, is the concentration required to produce half-maximum inhibition. This quantitative measure indicates how much of a particular drug or other substance (inhibitor) is needed to inhibit a given biological process (or component of a process, i.e. an enzyme, cell, cell receptor or microorganism) by half. The values are typically expressed as molar (micro- and nano-) concentrations.

σ (DOR) opioid receptor = σ (DOR) opioid receptor (Homo sapiens, UniProt P41143); assay: CNS receptor inhibition, Delta opioid receptor; assay type: binding
Description: as §2

MDA-MB-231 = assay: Cytotoxicity in cancer cell line MDA-MB-231; assay type: cell-based
Text: as §1

CNS Receptor = CNS Receptor binding (profile)
Description: as §2

μ (MOR) opioid receptor = μ (MOR) opioid receptor (Homo sapiens, UniProt P35372); assay: CNS receptor inhibition, Mu opioid receptor; assay type: binding
Description: as §2

bEnd.3 cells = assay: Blood-brain barrier membrane permeability in in-vitro monolayer of bEnd.3 cells; assay type: in vitro ADME; settings: in 30 minutes
Text: FIG. 4 provides permeability data for the blood-brain barrier (BBB) of various compounds, including gliotoxin and Formula 1b. Membrane permeability increases linearly as a function of time.

H1 receptor = H1 receptor (Homo sapiens, UniProt P35367); assay: CNS receptor inhibition, H1 receptor; assay type: binding
Description: as §2

Chain of H1 receptor (P35367 whole entry): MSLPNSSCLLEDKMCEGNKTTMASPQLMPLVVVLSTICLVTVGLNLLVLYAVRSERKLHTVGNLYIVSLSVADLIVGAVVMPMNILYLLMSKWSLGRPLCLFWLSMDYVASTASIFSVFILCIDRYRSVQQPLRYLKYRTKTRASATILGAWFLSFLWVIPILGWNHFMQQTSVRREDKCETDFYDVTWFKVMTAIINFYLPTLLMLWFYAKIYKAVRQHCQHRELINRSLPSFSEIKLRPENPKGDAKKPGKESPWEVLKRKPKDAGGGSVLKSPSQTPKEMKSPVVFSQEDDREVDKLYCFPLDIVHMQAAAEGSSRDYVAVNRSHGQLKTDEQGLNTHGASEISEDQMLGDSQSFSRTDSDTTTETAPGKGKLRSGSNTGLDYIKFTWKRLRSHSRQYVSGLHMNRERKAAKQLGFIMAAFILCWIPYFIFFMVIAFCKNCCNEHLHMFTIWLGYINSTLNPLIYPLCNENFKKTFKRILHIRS
Chain of σ (DOR) opioid receptor (P41143 whole entry): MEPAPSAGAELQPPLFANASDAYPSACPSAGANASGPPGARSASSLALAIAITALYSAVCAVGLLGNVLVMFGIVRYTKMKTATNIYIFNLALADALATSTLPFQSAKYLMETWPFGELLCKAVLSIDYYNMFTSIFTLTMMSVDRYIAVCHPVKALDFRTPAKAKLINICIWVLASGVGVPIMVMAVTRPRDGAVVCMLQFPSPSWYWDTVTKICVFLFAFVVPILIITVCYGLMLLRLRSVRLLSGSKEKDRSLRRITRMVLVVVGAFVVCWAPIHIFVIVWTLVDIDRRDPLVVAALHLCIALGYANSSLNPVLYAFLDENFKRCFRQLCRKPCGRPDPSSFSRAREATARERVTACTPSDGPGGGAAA
Chain of μ (MOR) opioid receptor (P35372 whole entry): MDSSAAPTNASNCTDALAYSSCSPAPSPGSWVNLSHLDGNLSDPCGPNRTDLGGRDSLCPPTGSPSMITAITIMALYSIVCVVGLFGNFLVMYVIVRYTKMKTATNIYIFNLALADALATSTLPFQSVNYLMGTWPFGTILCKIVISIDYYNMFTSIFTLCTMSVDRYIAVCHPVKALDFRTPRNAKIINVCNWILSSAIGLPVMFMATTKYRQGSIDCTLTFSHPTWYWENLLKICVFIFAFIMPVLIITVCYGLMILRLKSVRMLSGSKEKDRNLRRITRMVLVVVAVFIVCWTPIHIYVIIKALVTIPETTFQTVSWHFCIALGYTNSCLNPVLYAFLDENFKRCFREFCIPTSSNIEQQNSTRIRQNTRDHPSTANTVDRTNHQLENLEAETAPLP
Chain of κ (KOR) opioid receptor (P41145 whole entry): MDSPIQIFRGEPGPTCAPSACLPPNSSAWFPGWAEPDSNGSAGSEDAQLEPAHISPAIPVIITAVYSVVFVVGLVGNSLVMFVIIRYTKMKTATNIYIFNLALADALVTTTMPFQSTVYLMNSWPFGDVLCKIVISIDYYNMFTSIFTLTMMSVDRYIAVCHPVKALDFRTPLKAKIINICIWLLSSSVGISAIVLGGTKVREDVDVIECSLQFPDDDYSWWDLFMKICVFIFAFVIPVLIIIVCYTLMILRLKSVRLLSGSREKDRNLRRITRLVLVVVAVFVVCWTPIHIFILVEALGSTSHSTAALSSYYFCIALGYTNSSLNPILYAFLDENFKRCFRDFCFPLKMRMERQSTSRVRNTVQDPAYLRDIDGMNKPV

SMILES | Inhibition of tube formation (HUVEC cells) | E. Coli MIC (E. Coli) | Inhibition (%) (κ (KOR) opioid receptor) | Inhibition (%) (σ (DOR) opioid receptor) | IC50 (MDA-MB-231) | CNS Receptor binding (CNS Receptor) | Inhibition (%) (μ (MOR) opioid receptor) | ability to cross the BBB (bEnd.3 cells) | CNS activity, inhibition of the H1 receptor (FIG. 7) (H1 receptor) | Inhibition (%) (H1 receptor; H1) | MIC (E. Coli; Escherichia coli) | IC50 (MDA-MB-231; Homo sapiens)
CCc1cccc2c1N1C(=O)CC(C)C(=O)C1C2 (stereo not drawn) [Formula 1b, 4-ethyl-8-methyl-7,8,9a,10-tetrahydropyrido[1,2-α]indole-6,9-dione] | no inhibition was observed | Not Active | 99.3% | 97.4% | > 100000 nM | Opioid Antagonist | 97.8% | 80% | – | – | – | –
CN1C(=O)[C@]23CC4=CC=C[C@H](O)[C@H]4N2C(=O)[C@@]1(CO)SS3 [Gliotoxin, reference compound] | Inhibition of tube formation was observed | – | – | – | – | H1 Receptor Antagonist | – | – | partial inhibition | 61% | 32 µg/mL (≈ 98 µM) | 1400 nM
